The test system of data set [1] is phosphorylation of BLNK in Ramos B cells. The data set is described as follows: Anti IgM-induced phosphorylation of BLNK in Ramos B cells. It is filed as cell-based. The settings on record: Homo sapiens, 0.25 h, anti IgM 15 min, flow cytometry anti-BLNK (pY84). As to the method: Anti IgM-induced phosphorylation of BLNK (BLNK=B cell linker (SLP65=SH2 domain containing leukocyte protein of 65 kDa)) in Ramos B cells: Ramos B cells in a volume of 25 μl were incubated with 25 μl of the compound solution at 2-fold the desired final concentration for 30 min. at 37° C. Then 50 μL anti IgM was added, mixed and incubated for 15 min. at 37° C. In each experiment 8-fold serial dilutions of compounds were tested. The stimulation was stopped by addition of 100 μL/well of PFA (para formaldehyde) I PBS (phosphate buffered saline) (final conc. 2% PFA) for fixation and incubated for 15 min. at 37° C., then centrifuged at 1300 rpm for 3 min and permeabilized by resuspending the cell pellet in 100 μL methanol 90% and further incubated for 30 min at 4° C. The cells were then washed and phosphoproteins were detected by flow cytometry using fluorescently labeled anti-BLNK ([…]) (BD Biosciences).

The target of another data set is T1, hERG channel (Homo sapiens, UniProt Q12809).
T1 construct: host or cells: HEK293
The experiment in a line: Inhibition of the hERG channel (manual patch clamp assay). It is filed as cell-based. The settings on record: HEK293 cells stably transfected with hERG cDNA, whole-cell patch clamp, tail current. An excerpt: The hERG patch clamp assay was done according to standard procedures used in Genetic Toxicology and Safety Pharmacology, based on recommendations and descriptions of methods in the literature, and according to current guidelines (ICH S7B, The non clinical evaluation of the potential for delayed ventricular repolarization (QT interval prolongation) by human pharmaceuticals, 2005). The purpose of the study is to assess the effect of the test item ABC123 on tail current recorded from HEK293 cells stably transfected with hERG cDNA. The HEK293 cells, which have been stably transfected with hERG cDNA, are a model considered to be suitable for this purpose (Zhou et al., 1998). Repolarisation of cardiac ventricular myocytes is mainly due to outward potassium currents. The most important current in humans is the delayed rectifier potassium current, IK, which has both rapidly and slowly activating components (IKr and IKs) (Sanguinetti and Jurkiewicz, 1990). The human ether-a-gogo-related-gene (hERG) encodes the major protein underlying IKr. Thus, inhibition of hERG potassium channels may lead to delayed cardiac repolarisation (Sanguinetti et al., 1995). Prolongation of cardiac repolarisation is a side effect that can be associated with some drug therapies. This proarrhythmic alteration is characterised by a prolongation of the QT interval in the surface electrocardiogram and is of particular concern because it may lead to the development of polymorphic ventricular arrhythmias like torsade de pointes (for review see: Vandenberg, Walker and Campbell, 2001). […] HERG HEK (HEK293 cells stably transfected with hERG cDNA) obtained from the University of Wisconsin were used. For the experiments the cells were plated onto sterile Thermanox plastic coverslips (Nalge Nunc International) in 6-well plates. The dishes were stored in a humidified, gassed incubator. The coverslips with cells were transferred to the recording chamber and continuously superfused (at approximately 1-2 ml/min) with vehicle. The temperature of the vehicle in the bath chamber was regulated by temperature controllers to 35° C.±2.0° C. hERG currents were measured in the whole-cell patch-clamp configuration. Once a stable patch clamp configuration was achieved, recording commenced in voltage-clamp mode, with the cell initially clamped at -75 mV. hERG current was observed and recorded if a stable hERG tail current response could be induced. […] The hERG HEK293 cells were treated approximately 9 min with the test item. The following voltage protocol was applied to induce hERG currents: The step from -75 mV to +10 mV activates an outward current (i.e. current flows out of the cell) and the step from +10 mV to -40 mV produces the tail current (the tail current represents the time taken for the current to turn off). […] The leak current was recorded and subtracted by a P/3n pulse between the voltage pulses (0.1 Hz).
On the technique in general: hERG is a cardiac potassium channel; its block is linked to QT prolongation.

The text below walks through data of patent US20130310387A1, “Monocyclic Heteroaryl Cycloalkyldiamine Derivatives” (NOVARTIS AG, priority 2012, published 2013).

T1 sequence (Q12809 whole entry): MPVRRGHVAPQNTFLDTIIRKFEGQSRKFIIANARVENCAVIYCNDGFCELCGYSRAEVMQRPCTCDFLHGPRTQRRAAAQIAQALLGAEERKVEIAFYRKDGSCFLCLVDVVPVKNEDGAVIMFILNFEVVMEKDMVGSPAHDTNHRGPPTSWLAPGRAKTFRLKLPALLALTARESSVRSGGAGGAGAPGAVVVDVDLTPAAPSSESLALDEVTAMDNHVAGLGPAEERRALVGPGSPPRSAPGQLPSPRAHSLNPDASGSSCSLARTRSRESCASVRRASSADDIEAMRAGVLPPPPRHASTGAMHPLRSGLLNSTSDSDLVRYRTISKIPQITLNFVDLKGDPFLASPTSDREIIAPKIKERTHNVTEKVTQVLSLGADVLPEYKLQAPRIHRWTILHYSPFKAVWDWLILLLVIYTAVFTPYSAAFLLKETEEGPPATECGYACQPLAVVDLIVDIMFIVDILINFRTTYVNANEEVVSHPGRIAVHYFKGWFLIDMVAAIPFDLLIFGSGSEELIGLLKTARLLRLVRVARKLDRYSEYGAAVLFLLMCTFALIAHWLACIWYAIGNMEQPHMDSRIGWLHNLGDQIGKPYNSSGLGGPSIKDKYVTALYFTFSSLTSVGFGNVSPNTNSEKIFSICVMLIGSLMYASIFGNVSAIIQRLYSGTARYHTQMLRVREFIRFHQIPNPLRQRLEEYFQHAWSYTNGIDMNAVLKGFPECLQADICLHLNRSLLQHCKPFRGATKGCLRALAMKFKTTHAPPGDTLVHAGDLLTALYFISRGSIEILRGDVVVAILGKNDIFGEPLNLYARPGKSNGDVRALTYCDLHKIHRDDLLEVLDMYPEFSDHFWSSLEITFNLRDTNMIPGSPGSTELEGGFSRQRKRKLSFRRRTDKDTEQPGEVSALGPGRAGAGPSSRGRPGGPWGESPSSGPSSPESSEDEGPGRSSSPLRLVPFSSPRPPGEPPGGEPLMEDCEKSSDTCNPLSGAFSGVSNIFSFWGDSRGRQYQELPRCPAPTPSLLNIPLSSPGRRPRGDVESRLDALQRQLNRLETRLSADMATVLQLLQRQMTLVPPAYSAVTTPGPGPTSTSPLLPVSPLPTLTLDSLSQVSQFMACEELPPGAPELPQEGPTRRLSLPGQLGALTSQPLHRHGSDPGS

What is called IC50 is the concentration at which inhibition is half-maximal. Read a high IC50 as weaker potency. For orientation: inhibition means the drop in the measured response relative to a control, in per cent. Regarding `NC(=O)c1nnc(N[C@@H]2CCCC[C@@H]2N)nc1Nc1cccc2cc[nH]c12` [Example 1.1, 3-((1R,2S)-2-Amino-cyclohexylamino)-5-(1H-indol-7-ylamino)-[1,2,4]triazine-6-carboxylic acid amide], the IC50 in data set [1] is 106 nM. At hERG channel (at 10 uM), the inhibition at 9 min, 10 µM is -5 ± 4%. Also, the inhibition at 9 min, 30 µM on hERG channel (at 30 uM) was 12 ± 6%.
